Laboratory results taken from patent publication US5698411A, “Method for determining activity of enzymes in metabolically active whole cells” (priority 1995, dated 1997).
“And” between values parts separate entries of the source, which are not always exact repeats. Identical values can stand only once.

Key:
Type in all cases: cell-based, human
[1] = tested on: metabolically active whole cell; assay: substrate panel in normals and HIV + patients, TB infection (Table 4); set-up: unit not given here
Description: A panel of assay compounds are assembled consisting of Ala-aminopeptidase and Lys-aminopeptidase, Dipeptidyl peptidase IV (Ala-Ala)2 rhodamine 110 and Cathepsin D to indicate possible TB infection in AIDS related cases.
A panel Of enzymatic substrates is performed consisting of Ala-aminopeptidase and Lys-aminopeptidase, Dipeptidyl peptidase IV (Ala-Ala)2 rhodamine 110 and Cathepsin D to indicate possible TB infection in AIDS related cases.

lymphocytes [2] = assay: peptidase activity in leukemia and non-leukemia patients, lymphocytes (Table 6C); set-up: unit not given here
Description: (§1) Artificial intelligence was used to analyze data of cellular enzyme functions, and determine normal and disease states. Peptidases were used to distinguish leukemia from non-leukemia (output pattern). For input patterns lymphocyte and granulocyte cell types were used with aminopeptidases, cathepsins and dipeptidylpeptidase enzyme activities. In this Example, illustrated in Tables 6A-6C, three normals and three leukemia patients were used as known output patterns for the neural network to learn (in practice, the larger the learning set the more accurate unknown prediction will be). Unknowns were then presented to the learned algorithm as shown in the test case examples. Clinical diagnosis was confirmed by physicians. The trained neural network was able to correctly classify the leukemia from the non-leukemia.

granulocytes [3] = assay: peptidase activity in leukemia and non-leukemia patients, granulocytes (Table 6C); set-up: unit not given here
Description: as §1

lymphocytes [4] = assay: aberrant enzyme activities in febrile children, lymphocytes (Table 7)
monocytes = assay: aberrant enzyme activities in febrile children, monocytes (Table 7)
granulocytes [5] = assay: aberrant enzyme activities in febrile children, granulocytes (Table 7)

## NC(=O)CC[C@H](N)C(=O)N[C@@H](CO)C(=O)Nc1ccc2c(c1)Oc1cc(NC(=O)[C@H](CO)NC(=O)[C@@H](N)CCC(N)=O)ccc1C21OC(=O)c2ccccc21 (relative stereo) [GLN--SER*]
[1]; HIV + PATIENTS
  MEAN DELTA FL: 13.7 and 12.7
[1]; NORMALS
  MEAN DELTA FL: 11.9 and 6.1

## C[C@H](N)C(=O)Nc1ccc2c(c1)Oc1cc(NC(=O)[C@H](C)N)ccc1C21OC(=O)c2ccccc21 [ALA, (Ala)2 Rho 110]
[1]; HIV + PATIENTS
  MEAN DELTA FL: 59.0
[1]; NORMALS
  MEAN DELTA FL: 132.0
Lymphocytes [2]; J4 11/21/91 acute leuk.
  enzyme activity, Lymphs: 86.00
Lymphocytes [2]; J4 12/2/91 A L
  enzyme activity, Lymphs: 68.10
Lymphocytes [2]; J4 12/3/91 acute leuk.
  enzyme activity, Lymphs: 74.64
Lymphocytes [2]; J5 11/27/91 A M L
  enzyme activity, Lymphs: 92.44
Lymphocytes [2]; J19 11/27/91 C L L
  enzyme activity, Lymphs: 47.78
Lymphocytes [2]; J22 12/2/91 A M L
  enzyme activity, Lymphs: 84.42
Lymphocytes [2]; J22 12/9/91 A M L
  enzyme activity, Lymphs: 83.48
Lymphocytes [2]; N191 normal
  enzyme activity, Lymphs: 95.72
Lymphocytes [2]; N192 normal
  enzyme activity, Lymphs: 103.31
Lymphocytes [2]; N193 normal
  enzyme activity, Lymphs: 100.50
Lymphocytes [2]; N194 normal
  enzyme activity, Lymphs: 97.02
Lymphocytes [2]; N195 normal
  enzyme activity, Lymphs: 118.81
Lymphocytes [2]; N197 normal
  enzyme activity, Lymphs: 96.36
Lymphocytes [2]; N199 normal
  enzyme activity, Lymphs: 91.07
Lymphocytes [2]; N200 normal
  enzyme activity, Lymphs: 101.38
Lymphocytes [2]; N201 normal
  enzyme activity, Lymphs: 106.72
Lymphocytes [2]; N202 normal
  enzyme activity, Lymphs: 118.37
Lymphocytes [2]; N206 normal
  enzyme activity, Lymphs: 122.71
Lymphocytes [2]; P68 tachycardia
  enzyme activity, Lymphs: 1471.10
Lymphocytes [2]; P69 pancreatic CA
  enzyme activity, Lymphs: 130.34
Lymphocytes [2]; P70 cirrhosis/hemobilia
  enzyme activity, Lymphs: 141.87
Lymphocytes [2]; P71 ac. pyelonephritis
  enzyme activity, Lymphs: 109.26
Granulocytes [3]; J4 11/21/91 acute leuk.
  enzyme activity, Grans: 193.43
Granulocytes [3]; J4 12/2/91 A L
  enzyme activity, Grans: 139.53
Granulocytes [3]; J4 12/3/91 acute leuk.
  enzyme activity, Grans: 138.89
Granulocytes [3]; J5 11/27/91 A M L
  enzyme activity, Grans: 194.85
Granulocytes [3]; J19 11/27/91 C L L
  enzyme activity, Grans: 143.11
Granulocytes [3]; J22 12/2/91 A M L
  enzyme activity, Grans: 157.12
Granulocytes [3]; J22 12/9/91 A M L
  enzyme activity, Grans: 157.48
Granulocytes [3]; N191 normal
  enzyme activity, Grans: 177.32
Granulocytes [3]; N192 normal
  enzyme activity, Grans: 154.84
Granulocytes [3]; N193 normal
  enzyme activity, Grans: 178.64
Granulocytes [3]; N194 normal
  enzyme activity, Grans: 164.00
Granulocytes [3]; N195 normal
  enzyme activity, Grans: 221.28
Granulocytes [3]; N197 normal
  enzyme activity, Grans: 188.20
Granulocytes [3]; N199 normal
  enzyme activity, Grans: 157.30
Granulocytes [3]; N200 normal
  enzyme activity, Grans: 171.06
Granulocytes [3]; N201 normal
  enzyme activity, Grans: 206.06
Granulocytes [3]; N202 normal
  enzyme activity, Grans: 201.17
Granulocytes [3]; N206 normal
  enzyme activity, Grans: 232.57
Granulocytes [3]; P68 tachycardia
  enzyme activity, Grans: 276.07
Granulocytes [3]; P69 pancreatic CA
  enzyme activity, Grans: 204.02
Granulocytes [3]; P70 cirrhosis/hemobilia
  enzyme activity, Grans: 236.23
Granulocytes [3]; P71 ac. pyelonephritis
  enzyme activity, Grans: 185.37
Lymphocytes [4]; P88 Enteritis
  aberrant enzyme activity, LYMPHS: .smallcircle.
Lymphocytes [4]; P89 Viral Stomatitis
  aberrant enzyme activity, LYMPHS: .smallcircle.
Lymphocytes [4]; P92 Adenitis
  aberrant enzyme activity, LYMPHS: .smallcircle.
Lymphocytes [4]; P97 Pyelonephritis
  aberrant enzyme activity, LYMPHS: .smallcircle.
Lymphocytes [4]; P102 UTI
  aberrant enzyme activity, LYMPHS: .smallcircle.
Lymphocytes [4]; P103 Viral Syndrome
  aberrant enzyme activity, LYMPHS: .smallcircle.
monocytes; P88 Enteritis
  aberrant enzyme activity, MONOS: .smallcircle.
monocytes; P89 Viral Stomatitis
  aberrant enzyme activity, MONOS: .smallcircle.
monocytes; P92 Adenitis
  aberrant enzyme activity, MONOS: + (>0.25 Increase over normal range)
monocytes; P97 Pyelonephritis
  aberrant enzyme activity, MONOS: + (>0.25 Increase over normal range)
monocytes; P102 UTI
  aberrant enzyme activity, MONOS: + (>0.25 Increase over normal range)
monocytes; P103 Viral Syndrome
  aberrant enzyme activity, MONOS: .smallcircle.
Granulocytes [5]; P88 Enteritis
  aberrant enzyme activity, GRANS: .smallcircle.
Granulocytes [5]; P89 Viral Stomatitis
  aberrant enzyme activity, GRANS: .smallcircle.
Granulocytes [5]; P92 Adenitis
  aberrant enzyme activity, GRANS: + (>0.25 Increase over normal range)
Granulocytes [5]; P97 Pyelonephritis
  aberrant enzyme activity, GRANS: + (>0.25 Increase over normal range)
Granulocytes [5]; P102 UTI
  aberrant enzyme activity, GRANS: .smallcircle.
Granulocytes [5]; P103 Viral Syndrome
  aberrant enzyme activity, GRANS: .smallcircle.

## C[C@H](N)C(=O)NCC(=O)Nc1ccc2c(c1)Oc1cc(NC(=O)CNC(=O)[C@H](C)N)ccc1C21OC(=O)c2ccccc21 [ALA--GLY****]
[1]; HIV + PATIENTS
  MEAN DELTA FL: 39.9 and 29.7
[1]; NORMALS
  MEAN DELTA FL: 48.0 and 31.6

## CC(C)C[C@H](NC(=O)CN)C(=O)Nc1ccc2c(c1)Oc1cc(NC(=O)[C@H](CC(C)C)NC(=O)CN)ccc1C21OC(=O)c2ccccc21 [GL, (H Gly--Leu)2 Rho 110 .2FTA]
[1]; HIV + PATIENTS
  MEAN DELTA FL: 16.3
[1]; NORMALS
  MEAN DELTA FL: 9.5
Lymphocytes [4]; P92 Adenitis
  aberrant enzyme activity, LYMPHS: .smallcircle.
Lymphocytes [4]; P97 Pyelonephritis
  aberrant enzyme activity, LYMPHS: .smallcircle.
Lymphocytes [4]; P103 Viral Syndrome
  aberrant enzyme activity, LYMPHS: .smallcircle.
monocytes; P92 Adenitis
  aberrant enzyme activity, MONOS: .smallcircle.
monocytes; P97 Pyelonephritis
  aberrant enzyme activity, MONOS: .smallcircle.
monocytes; P103 Viral Syndrome
  aberrant enzyme activity, MONOS: .smallcircle.
Granulocytes [5]; P92 Adenitis
  aberrant enzyme activity, GRANS: .smallcircle.
Granulocytes [5]; P103 Viral Syndrome
  aberrant enzyme activity, GRANS: .smallcircle.

## NCC(=O)N1CCC[C@H]1C(=O)Nc1ccc2c(c1)Oc1cc(NC(=O)[C@@H]3CCCN3C(=O)CN)ccc1C21OC(=O)c2ccccc21 [GLY--PRO*]
[1]; HIV + PATIENTS
  MEAN DELTA FL: 21.4
[1]; HIV + PATIENTS, listed as GLY--PRO****
  MEAN DELTA FL: 18.4
[1]; NORMALS
  MEAN DELTA FL: 50.9
[1]; NORMALS, listed as GLY--PRO****
  MEAN DELTA FL: 46.7

## NCCCC[C@H](N)C(=O)Nc1ccc2c(c1)Oc1cc(NC(=O)[C@@H](N)CCCCN)ccc1C21OC(=O)c2ccccc21 [LYS, (H-L-Lys)2 Rho 110 .4TFA]
[1]; HIV + PATIENTS
  MEAN DELTA FL: 7.4
[1]; NORMALS
  MEAN DELTA FL: 10.5
Lymphocytes [2]; J4 11/21/91 acute leuk.
  enzyme activity, Lymphs: 0.77
Lymphocytes [2]; J19 11/27/91 C L L
  enzyme activity, Lymphs: 0.98
Lymphocytes [2]; J22 12/2/91 A M L
  enzyme activity, Lymphs: 0.74
Lymphocytes [2]; J22 12/9/91 A M L
  enzyme activity, Lymphs: 1.20
Lymphocytes [2]; N192 normal
  enzyme activity, Lymphs: 0.56
Lymphocytes [2]; N193 normal
  enzyme activity, Lymphs: 0.52
Lymphocytes [2]; N194 normal
  enzyme activity, Lymphs: 0.93
Lymphocytes [2]; N197 normal
  enzyme activity, Lymphs: 0.70
Lymphocytes [2]; N199 normal
  enzyme activity, Lymphs: 0.33
Lymphocytes [2]; N200 normal
  enzyme activity, Lymphs: 0.90
Lymphocytes [2]; N202 normal
  enzyme activity, Lymphs: 0.71
Lymphocytes [2]; P71 ac. pyelonephritis
  enzyme activity, Lymphs: 0.91
Granulocytes [3]; J22 12/9/91 A M L
  enzyme activity, Grans: 1.90
Granulocytes [3]; N191 normal
  enzyme activity, Grans: 1.20
Granulocytes [3]; N192 normal
  enzyme activity, Grans: 1.20
Granulocytes [3]; N199 normal
  enzyme activity, Grans: 0.95
Lymphocytes [4]; P92 Adenitis
  aberrant enzyme activity, LYMPHS: .smallcircle.
Lymphocytes [4]; P97 Pyelonephritis
  aberrant enzyme activity, LYMPHS: .smallcircle.
Lymphocytes [4]; P103 Viral Syndrome
  aberrant enzyme activity, LYMPHS: .smallcircle.
monocytes; P97 Pyelonephritis
  aberrant enzyme activity, MONOS: .smallcircle.
Granulocytes [5]; P103 Viral Syndrome
  aberrant enzyme activity, GRANS: .smallcircle.

## O=C1OC2(c3ccc(NC(=O)[C@@H]4CCCN4)cc3Oc3cc(NC(=O)[C@@H]4CCCN4)ccc32)c2ccccc21 [PRO, (H-L-Pro)2 --Rho 110 .2TFA]
[1]; HIV + PATIENTS
  MEAN DELTA FL: 11.0
[1]; NORMALS
  MEAN DELTA FL: 11.4
Lymphocytes [2]; J4 11/21/91 acute leuk.
  enzyme activity, Lymphs: 0.47
Lymphocytes [2]; J4 12/2/91 A L
  enzyme activity, Lymphs: 0.29
Lymphocytes [2]; J4 12/3/91 acute leuk.
  enzyme activity, Lymphs: 0.24
Lymphocytes [2]; J5 11/27/91 A M L
  enzyme activity, Lymphs: 0.89
Lymphocytes [2]; J19 11/27/91 C L L
  enzyme activity, Lymphs: 0.44
Lymphocytes [2]; J22 12/2/91 A M L
  enzyme activity, Lymphs: 0.40
Lymphocytes [2]; J22 12/9/91 A M L
  enzyme activity, Lymphs: 0.44
Lymphocytes [2]; N191 normal
  enzyme activity, Lymphs: 0.69
Lymphocytes [2]; N193 normal
  enzyme activity, Lymphs: 0.95
Lymphocytes [2]; N194 normal
  enzyme activity, Lymphs: 0.86
Lymphocytes [2]; N195 normal
  enzyme activity, Lymphs: 0.88
Lymphocytes [2]; N197 normal
  enzyme activity, Lymphs: 0.57
Lymphocytes [2]; N200 normal
  enzyme activity, Lymphs: 0.74
Lymphocytes [2]; N201 normal
  enzyme activity, Lymphs: 1.10
Lymphocytes [2]; N202 normal
  enzyme activity, Lymphs: 0.89
Lymphocytes [2]; P68 tachycardia
  enzyme activity, Lymphs: 0.70
Lymphocytes [2]; P69 pancreatic CA
  enzyme activity, Lymphs: 0.66
Lymphocytes [2]; P70 cirrhosis/hemobilia
  enzyme activity, Lymphs: 0.56
Lymphocytes [2]; P71 ac. pyelonephritis
  enzyme activity, Lymphs: 0.52
Granulocytes [3]; J19 11/27/91 C L L
  enzyme activity, Grans: 5.50
Granulocytes [3]; N195 normal
  enzyme activity, Grans: 4.70
Granulocytes [3]; P69 pancreatic CA
  enzyme activity, Grans: 5.70
Granulocytes [3]; P70 cirrhosis/hemobilia
  enzyme activity, Grans: 0.66
Lymphocytes [4]; P92 Adenitis
  aberrant enzyme activity, LYMPHS: .smallcircle.
Lymphocytes [4]; P97 Pyelonephritis
  aberrant enzyme activity, LYMPHS: .smallcircle.
Lymphocytes [4]; P103 Viral Syndrome
  aberrant enzyme activity, LYMPHS: .smallcircle.
monocytes; P92 Adenitis
  aberrant enzyme activity, MONOS: .smallcircle.
monocytes; P97 Pyelonephritis
  aberrant enzyme activity, MONOS: .smallcircle.
monocytes; P103 Viral Syndrome
  aberrant enzyme activity, MONOS: .smallcircle.
Granulocytes [5]; P92 Adenitis
  aberrant enzyme activity, GRANS: .smallcircle.
Granulocytes [5]; P97 Pyelonephritis
  aberrant enzyme activity, GRANS: .smallcircle.
Granulocytes [5]; P103 Viral Syndrome
  aberrant enzyme activity, GRANS: .smallcircle.

## C[C@@H](O)[C@H](N)C(=O)N1CCC[C@H]1C(=O)Nc1ccc2c(c1)Oc1cc(NC(=O)[C@@H]3CCCN3C(=O)[C@@H](N)[C@@H](C)O)ccc1C21OC(=O)c2ccccc21 [THR--PRO*]
[1]; HIV + PATIENTS
  MEAN DELTA FL: 10.2
[1]; NORMALS
  MEAN DELTA FL: 17.3
